Source: US20260176249A1, “PROTEIN KINASE INHIBITOR, PREPARATION METHOD THEREFOR, AND APPLICATION THEREOF” (SHANDONG LUYE PHARMACEUTICAL CO., LTD., priority 2021, published 2026)
Read-outs that look alike come from different tables or passages of the source. Blank lines part the entries; values can stand above or below the compound they belong to.

How the values were obtained:
[1] = Metabolic stability in human liver microsomes; type: in vitro ADME; settings: for CLint scaled at 1 µM / half-life at 1 µM: pH 7.4; for microsomal CLint at 1 µM: pH 7.4, read-out: CLint(mic)
Method: (§1) a. Preparation of phosphate buffer: The phosphate buffer powder was dissolved in 100 mL of pure water to prepare a phosphate buffer solution with a pH of 7.4 and a concentration of 100 mM, which was stored in a 4° C. refrigerator for later use.
(§2) b. All samples as well as the reference testosterone were dissolved in DMSO to obtain a 10 mM stock solution. The 10 mM stock solution was diluted to 100 μM with acetonitrile to obtain a working solution for later use.
(§3) c. Preparation of liver microsome working solution: Each of the mouse, rat and human liver microsome stock solutions (at concentration of 20 mg/mL) was taken and diluted to 0.56 mg/mL with 100 mM phosphate buffer solution to obtain the liver microsome working solution.
(§4) d. Preparation of solution: An appropriate amount of MgCl2 was weighed and used to prepare a MgCl2 solution at a concentration of 60 mM using 100 mM phosphate buffer solution. An appropriate amount of NADPH was weighed and used to prepare a NADPH solution at a concentration of 20 mM using 100 mM phosphate buffer solution. An equal volume of 60 mM MgCl2 solution was added to prepare an NADPH working solution containing 10 mM NADPH and 30 mM MgCl2. An acetonitrile solution containing 20 ng/mL tolbutamide was prepared as the stop solution.
(§5) e. Liver microsome incubation: 2 μL of each compound and the positive drug testosterone working solution were added to 178 μL of liver microsome working solution (0.56 mg/mL), mixed gently, and pre-incubated in a vibrating constant temperature water bath pot at 37° C. for 10 min. After adding 20 μL of NADPH working solution, the mixture was placed in a vibrating constant temperature water bath pot at 37° C. and timed incubation was started for 5, 10, 20, 30 and 60 min.
(§6) f. Stopping reaction: After the corresponding time of incubation, 400 μL of stop solution was added to stop the reaction, and then the sample was immediately shaken for 1 min. The sample was centrifuged at 13500 rpm for 10 min at 10° C. After centrifugation, the supernatant was removed, diluted with water according to the needs of each compound, and analyzed by LC-MS. For the 0-minute sample, the stop solution was first added and mixed evenly with the liver microsomes, and then the NADPH working solution was added. For the negative control sample, 20 μL of 30 mM MgCl2 solution was added instead of the NADPH working solution.
(§7) T1/2 and CLint(mic) were calculated by the following formula.
(§8) [formula] [formula] • CLint(mic)=0.693/T1/2/liver microsomal protein concentration during incubation (mg/mL) • CLint(ver)=CLint(mic)*liver microsomal protein (mg)/liver weight (g)*liver weight to body weight ratio
(§9) Liver microsomal protein (mg)/liver weight (g): the value is 45 in both animal and human species.
(§10) Liver weight to body weight ratio: the parameters for mice, rats and humans are 88, 40 and 20 g/kg respectively.

[2] = Metabolic stability in mouse liver microsomes; type: in vitro ADME; settings: for CLint scaled at 1 µM / half-life at 1 µM: pH 7.4; for microsomal CLint at 1 µM: pH 7.4, read-out: CLint(mic)
Method: as §1, §2, §3, §4, §5, §6, §7, §8, §9, §10

PLK1 kinase = biological target: T1, PLK1 kinase (Homo sapiens, UniProt P53350); assay: Inhibitory activity on PLK1 kinase; type: biochemical; settings: for Imax: maximum effect caused by the compound at the test concentration
T1 construct: purchased Carnabio (Carna Biosciences) 05-157
Method: Detection solution PerkinElmer #TRF0218-M
Detection instrument PerkinElemer EnVision
a. Using the Echo machine, the compounds to be tested were diluted by 1:3 on a 384-well plate, and the highest concentration was 1 μM, with a total of 10 concentration points, and each concentration was tested in duplicate wells.
b. 5 μL/well of PLK1 kinase and peptide substrate mixture were added to the assay plate (containing controls).
d. The reaction was initiated by adding 5 μL/well of ATP solution;
e. The assay plate was centrifuged at 1000 rpm for about 15 seconds, a film was used to seal the assay plate which was incubated at 23° C. for a period of time;
f. A detection solution was added to all wells of the assay plate;
g. The assay plate was centrifuged at 1000 rpm for approximately 15 seconds, a film was used to seal the assay plate which was incubated at 23° C. for 60 min.
h. The assay plate was read on EnVision. The test results were analyzed using XLFIT5 software.

HCT116 cells = assay: Inhibitory activity on HCT116 cell proliferation (ATPlite); type: cell-based; settings: Homo sapiens, HCT-116, 72 h
Method: Cell culture medium: RPMI1640+10% FBS (GBICO)
Cell culture plate: 96-well plate (Shanghai Jingan Biotechnology Co., Ltd.)
Detection kit: ATPlite 1step Luminescence (PerkinElmer)
Detection instrument: BioTek multifunctional microplate reader
2. Test method: HCT116 cells in the logarithmic growth phase were seeded into a white-wall clear-bottom 96-well plate at a density of 720 cells per well, and cultured overnight in a 37° C., 5% CO2 incubator. […] After adding the drug, culturing was continued for 72 h in a 37° C., 5% CO2 incubator.
GraphPad Prism 7.0 was used to process the data, the cell inhibition rate curve was obtained and IC50 was calculated.

[3] = Metabolic stability in rat liver microsomes; type: in vitro ADME; settings: for CLint scaled at 1 µM / half-life at 1 µM: pH 7.4; for microsomal CLint at 1 µM: pH 7.4, read-out: CLint(mic)
Method: as §1, §2, §3, §4, §5, §6, §7, §8, §9, §10

Caco-2 cells = assay: Permeability and efflux transporter substrate evaluation in Caco-2 cells; type: in vitro ADME; design: Papp A→B at 120 min / Papp B→A at 120 min / efflux ratio at 120 min / Papp at 120 min: dose or concentration left out as unconfirmed; settings: Caco-2
Method: (§11) The cells were cultured in a carbon dioxide incubator for 21-28 days before being used for transport experiments. During this period, the culture medium was changed every four to five days.
(§12) This project uses Hank's balanced salt buffer (pH 7.40±0.05) containing 10 mM HEPES as the transport buffer. The culture medium was removed from the culture plate and the cells were washed twice with preheated transport buffer (approximately 75 μL and 40 mL of transport buffer for each apical well and basolateral receiver plate respectively). The donor solution and receiver solution were added to the corresponding cell plate wells (75 and 250 μL for each apical and basolateral well respectively), and the bidirectional transport experiment was started (apical to basolateral (A-B) and basolateral to apical (B-A)). The test concentration of the test substance was […], and two replicate wells were made for each dosing concentration. The test concentration of Digoxin was […], with dosing bidirectionally; the test concentrations of nadolol and metoprolol were both […], and they were dosed in one direction (A-B direction), and two replicate wells were made for each of the three control compounds.
(§13) The initial donor solution is the TO sample. After adding the sample, it was mixed with the transport buffer and stop solution in a certain proportion.
(§14) All samples were vortexed, and then centrifuged at 3220×g for 20 min at 20° C. A proper volume of supernatant was transferred to a sample assay plate, and the sample was stored at 2-8° C. if it was not analyzed immediately after the plate was sealed, and LC MS/MS method was used for analysis.
(§15) The Lucifer Yellow Rejection Assay was used to test the integrity of the Caco-2 cell layer.
(§16) The following formulas were used to calculate the apparent permeability coefficient (Papp, cm/s), efflux ratio (ER), and solution recovery (%) (% Solution Recovery).
(§17) [formula] [formula] [formula] • VR is the volume of the receiver side solution (side A is 0.075 mL, side B is 0.25 mL); Area is the relative surface area of the cell monolayer (0.0804 cm^2); Time is the incubation time (7200 s); C0 is the initial concentration (nM) of the test substance at the donor side or the peak area ratio of the control compound; VD is the volume of the donor side (side A is 0.075 mL, side B is 0.25 mL); CD and CR are the final concentration (nM) of the test substance at the donor side and the receiver side respectively or the peak area ratio of the control compound; • Lucifer yellow transmittance rate (% Lucifer Yellow) is calculated using the following formula:
(§18) [formula] • RFUApical and RFUBasolateral are the relative fluorescence intensity of lucifer yellow at the apical and basolateral sides respectively. VApical and VBasolateral are the sample loading volumes at the apical and basolateral sides respectively (0.075 and 0.25 mL respectively).

[4] = as above; type: in vitro ADME; design: Papp A→B at 120 min / Papp B→A at 120 min / efflux ratio at 120 min / Papp at 120 min: dose or concentration left out as unconfirmed; settings: human
Method: as §11, §12, §13, §14, §15, §16, §17, §18

[5] = PLK1 kinase, highest concentration 1 μM, 10 points, read-out: IC50

T1 sequence (P53350 whole entry): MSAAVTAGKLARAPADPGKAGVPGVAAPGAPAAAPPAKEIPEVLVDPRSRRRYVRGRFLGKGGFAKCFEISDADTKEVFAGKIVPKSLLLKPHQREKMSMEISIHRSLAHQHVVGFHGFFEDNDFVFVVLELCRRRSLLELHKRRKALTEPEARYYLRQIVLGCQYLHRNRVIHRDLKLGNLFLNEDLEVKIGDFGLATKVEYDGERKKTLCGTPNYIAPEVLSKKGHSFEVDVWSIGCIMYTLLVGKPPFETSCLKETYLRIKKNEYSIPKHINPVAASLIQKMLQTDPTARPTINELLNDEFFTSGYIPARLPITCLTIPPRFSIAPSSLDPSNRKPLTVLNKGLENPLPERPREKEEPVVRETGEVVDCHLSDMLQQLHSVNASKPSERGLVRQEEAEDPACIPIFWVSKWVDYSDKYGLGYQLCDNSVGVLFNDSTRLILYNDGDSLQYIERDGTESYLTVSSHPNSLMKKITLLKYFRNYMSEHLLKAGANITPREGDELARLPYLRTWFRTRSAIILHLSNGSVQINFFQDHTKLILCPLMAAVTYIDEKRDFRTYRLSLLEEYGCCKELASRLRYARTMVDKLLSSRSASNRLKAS

Structure (SMILES): CN1CCN(c2ccc(OC(F)(F)F)c(Nc3ncc4ccc5c(C(=O)NO)nn(CCO)c5c4n3)c2)CC1 [Compound 19]
60 min remaining amount [1]: 51.9% | Clearance rate [1]: Medium | CLint scaled at 1 µM [1]: 19.6 mL/min/kg | half-life at 1 µM [1]: 63.6 min | microsomal CLint at 1 µM [1]: 21.8 µL/min/mg | 60 min remaining amount [2]: 22.0% | Clearance rate [2]: Medium | CLint scaled at 1 µM [2]: 192 mL/min/kg | half-life at 1 µM [2]: 28.5 min | microsomal CLint at 1 µM [2]: 48.6 µL/min/mg | IC50 (PLK1 kinase): 1.06 nM | Imax (PLK1 kinase): 99.97% | IC50 (HCT116 cells): 96 nM | 60 min remaining amount [3]: 11.9% | Clearance rate [3]: Medium | CLint scaled at 1 µM [3]: 127 mL/min/kg | half-life at 1 µM [3]: 19.6 min | microsomal CLint at 1 µM [3]: 70.8 µL/min/mg

IC50 (PLK1 kinase; [5]): 1.51 nM | Imax (PLK1 kinase): 99.99%
Structure (SMILES): CN1CCN(c2ccc(OC(F)(F)F)c(Nc3ncc4ccc5c(C(N)=O)cn(C)c5c4n3)c2)CC1 [Compound 22]

Imax (PLK1 kinase): 101.08%
Structure (SMILES): C[C@@H](Oc1cc(-n2cnc3ccc(CN4CCN(C)CC4)cc32)sc1C(N)=O)c1ccccc1C(F)(F)F [GSK461364, reference compound]

60 min remaining amount [1]: 14.1% | Clearance rate [1]: High | CLint scaled at 1 µM ([1]; human): 60.7 mL/min/kg | half-life at 1 µM ([1]; human): 20.6 min | microsomal CLint at 1 µM ([1]; human): 67.4 µL/min/mg | 60 min remaining amount [2]: 2.92% | Clearance rate [2]: High | CLint scaled at 1 µM ([2]; mouse): 940 mL/min/kg | half-life at 1 µM ([2]; mouse): 5.84 min | microsomal CLint at 1 µM ([2]; mouse): 237 µL/min/mg | IC50 (PLK1 kinase; [5]): 0.79 nM | Imax (PLK1 kinase): 100.68% | Classification Efflux transporter substrate (Caco-2 cells): Very unlikely or not (ERa < 2.00) | efflux ratio at 120 min ([4]; Caco-2, pH 7.4): 1.97 | Papp at 120 min ([4]; Caco-2, pH 7.4, read-out: Classification Permeability): < 0.5 ×10⁻⁶ cm/s | Papp A→B at 120 min ([4]; pH 7.4, Caco-2, apical to basolateral, 120 min, pH 7.40): 0.275 ×10⁻⁶ cm/s | Papp B→A at 120 min ([4]; pH 7.4, Caco-2, basolateral to apical, 120 min, pH 7.40): 0.542 ×10⁻⁶ cm/s | 60 min remaining amount [3]: 2.06% | Clearance rate [3]: High | CLint scaled at 1 µM ([3]; rat): 1090 mL/min/kg | half-life at 1 µM ([3]; rat): 2.3 min | microsomal CLint at 1 µM ([3]; rat): 603 µL/min/mg
Structure (SMILES): CCc1sc(C(N)=O)c2c1-c1nc(Nc3cc(N4CCN(C)CC4)ccc3OC(F)(F)F)ncc1CC2 [Compound 7]

Structure (SMILES): CN1CCN(c2ccc(OC(F)(F)F)c(Nc3ncc4ccc5c(C(N)=O)nn(CC(F)(F)F)c5c4n3)c2)CC1 [Compound 28]
IC50 (PLK1 kinase): 0.67 nM | Imax (PLK1 kinase): 100.08%

60 min remaining amount [1]: 26.0% | Clearance rate [1]: Medium | CLint scaled at 1 µM ([1]; human): 41.8 mL/min/kg | half-life at 1 µM ([1]; human): 29.9 min | microsomal CLint at 1 µM ([1]; human): 46.4 µL/min/mg | 60 min remaining amount [2]: 2.46% | Clearance rate [2]: High | CLint scaled at 1 µM ([2]; mouse): 470 mL/min/kg | half-life at 1 µM ([2]; mouse): 11.7 min | microsomal CLint at 1 µM ([2]; mouse): 119 µL/min/mg | IC50 (PLK1 kinase; [5]): 0.814 nM | Imax (PLK1 kinase): 99.97% | 60 min remaining amount [3]: 1.93% | Clearance rate [3]: High | CLint scaled at 1 µM ([3]; rat): 410 mL/min/kg | half-life at 1 µM ([3]; rat): 6.08 min | microsomal CLint at 1 µM ([3]; rat): 228 µL/min/mg
Structure (SMILES): CN1CCN(c2ccc(OC(F)(F)F)c(Nc3ncc4c(n3)-c3c(c(C(=O)NO)nn3CCF)CC4)c2)CC1 [Compound 17]

Structure (SMILES): CN1CCN(c2ccc(OC(F)(F)F)c(Nc3ncc4ccc5c(C(=O)NO)nn(CCF)c5c4n3)c2)CC1 [Compound 25]
IC50 (PLK1 kinase): 1.12 nM | Imax (PLK1 kinase): 100.23%
